# Measured values reported in PMC10507085, “Pharmacological inhibition of TBK1/IKKε blunts immunopathology in a murine model of SARS-CoV-2 infection” (Nature Communications, 2023).
# Experiments:
# Experiment in all cases: biochemical
# Set-up in all cases: KINOMEscan competition binding, DNA-tagged kinase against immobilised ligand, qPCR read-out
# Conditions in all cases: read-out: Percent Control
# CAMK1G = CAMK1G (Homo sapiens, UniProt Q96NX5)
# [1] = molecular target: T1, JAK2(JH1domain-catalytic) (Homo sapiens, UniProt O60674)
# T1 construct: JH1 domain catalytic
# BUB1 = BUB1 (Homo sapiens, UniProt O43683)
# CDC2L2 = molecular target: T2, CDC2L2 (Homo sapiens, UniProt Q9UQ88)
# T2 construct: gene CDK11A
# MAP4K5 = MAP4K5 (Homo sapiens, UniProt Q9Y4K4)
# PIM1 = PIM1 (Homo sapiens, UniProt P11309)
# ACVR1B = ACVR1B (Homo sapiens, UniProt P36896)
# TTK = TTK (Homo sapiens, UniProt P33981)
# CLK1 = CLK1 (Homo sapiens, UniProt P49759)
# BTK = BTK (Homo sapiens, UniProt Q06187)
# LIMK1 = LIMK1 (Homo sapiens, UniProt P53667)
# OXSR1 = OXSR1 (Homo sapiens, UniProt O95747)
# MAK = MAK (Homo sapiens, UniProt P20794)
# NEK4 = NEK4 (Homo sapiens, UniProt P51957)
# PIKFYVE = PIKFYVE (Homo sapiens, UniProt Q9Y2I7)
# CSNK1A1L = CSNK1A1L (Homo sapiens, UniProt Q8N752)
# FRK = FRK (Homo sapiens, UniProt P42685)
# MAP2K5 = MAP2K5 (Homo sapiens, UniProt Q13163)
# CHEK2 = CHEK2 (Homo sapiens, UniProt O96017)
# NEK6 = NEK6 (Homo sapiens, UniProt Q9HC98)
# NEK6, sequence (Q9HC98 whole entry): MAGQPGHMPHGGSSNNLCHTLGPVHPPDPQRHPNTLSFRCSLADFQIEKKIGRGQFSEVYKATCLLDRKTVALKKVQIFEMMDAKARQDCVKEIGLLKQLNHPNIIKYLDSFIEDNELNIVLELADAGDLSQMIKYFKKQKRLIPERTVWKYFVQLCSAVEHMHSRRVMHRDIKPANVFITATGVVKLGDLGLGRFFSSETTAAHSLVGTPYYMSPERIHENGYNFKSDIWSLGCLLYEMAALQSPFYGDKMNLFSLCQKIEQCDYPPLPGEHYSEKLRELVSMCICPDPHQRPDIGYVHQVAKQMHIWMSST
# CAMK1G, sequence (Q96NX5 whole entry): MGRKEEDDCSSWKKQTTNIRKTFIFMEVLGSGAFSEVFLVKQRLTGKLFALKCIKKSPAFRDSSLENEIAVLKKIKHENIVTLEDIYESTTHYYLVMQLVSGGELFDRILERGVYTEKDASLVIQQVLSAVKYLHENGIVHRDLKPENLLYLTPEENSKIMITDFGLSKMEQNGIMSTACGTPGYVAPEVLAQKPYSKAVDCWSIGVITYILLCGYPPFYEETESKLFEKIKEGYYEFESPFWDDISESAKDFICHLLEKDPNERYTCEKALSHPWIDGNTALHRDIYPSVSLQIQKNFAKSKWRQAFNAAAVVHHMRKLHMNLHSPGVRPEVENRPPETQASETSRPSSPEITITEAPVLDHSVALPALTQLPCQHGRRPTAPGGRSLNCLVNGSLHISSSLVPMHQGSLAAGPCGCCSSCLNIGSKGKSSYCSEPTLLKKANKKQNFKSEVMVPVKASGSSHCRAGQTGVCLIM
# PIM1, sequence (P11309 whole entry): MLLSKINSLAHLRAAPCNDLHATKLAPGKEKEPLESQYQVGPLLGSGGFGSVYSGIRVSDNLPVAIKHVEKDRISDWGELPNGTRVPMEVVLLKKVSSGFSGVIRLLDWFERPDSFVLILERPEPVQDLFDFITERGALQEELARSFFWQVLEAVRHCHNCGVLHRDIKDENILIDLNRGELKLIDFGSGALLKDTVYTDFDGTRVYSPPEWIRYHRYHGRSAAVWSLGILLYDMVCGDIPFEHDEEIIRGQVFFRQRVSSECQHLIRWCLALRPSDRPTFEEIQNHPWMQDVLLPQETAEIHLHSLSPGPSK
# MAK, sequence (P20794 whole entry): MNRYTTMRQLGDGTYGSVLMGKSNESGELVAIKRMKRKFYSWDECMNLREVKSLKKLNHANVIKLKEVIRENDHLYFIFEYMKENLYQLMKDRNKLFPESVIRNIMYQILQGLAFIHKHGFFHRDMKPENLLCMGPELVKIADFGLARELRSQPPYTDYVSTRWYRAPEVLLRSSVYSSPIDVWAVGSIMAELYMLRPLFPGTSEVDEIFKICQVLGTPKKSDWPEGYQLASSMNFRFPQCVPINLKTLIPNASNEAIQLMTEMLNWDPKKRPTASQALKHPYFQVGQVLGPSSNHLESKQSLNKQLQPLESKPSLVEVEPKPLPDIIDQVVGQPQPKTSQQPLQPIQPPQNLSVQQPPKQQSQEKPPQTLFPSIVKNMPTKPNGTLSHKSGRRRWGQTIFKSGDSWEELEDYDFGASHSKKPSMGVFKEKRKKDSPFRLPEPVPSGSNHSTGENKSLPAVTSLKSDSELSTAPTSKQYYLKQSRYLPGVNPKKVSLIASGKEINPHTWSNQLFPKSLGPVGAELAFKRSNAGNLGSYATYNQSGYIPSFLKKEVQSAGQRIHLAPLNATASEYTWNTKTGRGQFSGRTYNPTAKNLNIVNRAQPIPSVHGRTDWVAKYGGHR
# CLK1, sequence (P49759 whole entry): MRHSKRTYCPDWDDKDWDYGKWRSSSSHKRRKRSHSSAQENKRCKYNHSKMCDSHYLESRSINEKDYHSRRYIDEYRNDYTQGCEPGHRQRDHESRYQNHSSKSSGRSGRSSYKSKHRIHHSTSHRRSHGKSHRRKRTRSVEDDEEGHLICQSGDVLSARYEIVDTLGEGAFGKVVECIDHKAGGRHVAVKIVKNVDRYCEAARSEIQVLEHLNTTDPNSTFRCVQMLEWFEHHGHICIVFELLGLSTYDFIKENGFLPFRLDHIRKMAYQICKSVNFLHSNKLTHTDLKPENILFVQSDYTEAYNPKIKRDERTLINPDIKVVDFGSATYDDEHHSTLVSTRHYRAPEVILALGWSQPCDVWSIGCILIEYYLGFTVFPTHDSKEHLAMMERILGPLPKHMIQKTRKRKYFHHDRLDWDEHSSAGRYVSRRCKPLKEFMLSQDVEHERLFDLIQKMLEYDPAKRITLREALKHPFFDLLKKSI
# ACVR1B, sequence (P36896 whole entry): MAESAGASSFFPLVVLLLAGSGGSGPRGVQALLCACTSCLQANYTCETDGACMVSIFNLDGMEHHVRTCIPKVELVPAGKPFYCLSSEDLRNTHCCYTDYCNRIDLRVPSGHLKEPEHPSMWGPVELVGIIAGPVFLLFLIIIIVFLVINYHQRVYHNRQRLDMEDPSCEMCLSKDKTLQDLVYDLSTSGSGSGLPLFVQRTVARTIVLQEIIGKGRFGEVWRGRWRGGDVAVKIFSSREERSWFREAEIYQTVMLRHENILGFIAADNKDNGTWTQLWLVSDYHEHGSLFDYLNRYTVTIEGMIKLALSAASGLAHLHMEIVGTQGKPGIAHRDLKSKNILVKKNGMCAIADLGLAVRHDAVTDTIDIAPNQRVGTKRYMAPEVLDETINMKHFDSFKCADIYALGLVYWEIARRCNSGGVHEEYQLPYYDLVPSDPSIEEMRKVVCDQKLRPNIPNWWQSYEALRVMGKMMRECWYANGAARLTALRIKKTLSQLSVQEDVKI
# TTK, sequence (P33981 whole entry): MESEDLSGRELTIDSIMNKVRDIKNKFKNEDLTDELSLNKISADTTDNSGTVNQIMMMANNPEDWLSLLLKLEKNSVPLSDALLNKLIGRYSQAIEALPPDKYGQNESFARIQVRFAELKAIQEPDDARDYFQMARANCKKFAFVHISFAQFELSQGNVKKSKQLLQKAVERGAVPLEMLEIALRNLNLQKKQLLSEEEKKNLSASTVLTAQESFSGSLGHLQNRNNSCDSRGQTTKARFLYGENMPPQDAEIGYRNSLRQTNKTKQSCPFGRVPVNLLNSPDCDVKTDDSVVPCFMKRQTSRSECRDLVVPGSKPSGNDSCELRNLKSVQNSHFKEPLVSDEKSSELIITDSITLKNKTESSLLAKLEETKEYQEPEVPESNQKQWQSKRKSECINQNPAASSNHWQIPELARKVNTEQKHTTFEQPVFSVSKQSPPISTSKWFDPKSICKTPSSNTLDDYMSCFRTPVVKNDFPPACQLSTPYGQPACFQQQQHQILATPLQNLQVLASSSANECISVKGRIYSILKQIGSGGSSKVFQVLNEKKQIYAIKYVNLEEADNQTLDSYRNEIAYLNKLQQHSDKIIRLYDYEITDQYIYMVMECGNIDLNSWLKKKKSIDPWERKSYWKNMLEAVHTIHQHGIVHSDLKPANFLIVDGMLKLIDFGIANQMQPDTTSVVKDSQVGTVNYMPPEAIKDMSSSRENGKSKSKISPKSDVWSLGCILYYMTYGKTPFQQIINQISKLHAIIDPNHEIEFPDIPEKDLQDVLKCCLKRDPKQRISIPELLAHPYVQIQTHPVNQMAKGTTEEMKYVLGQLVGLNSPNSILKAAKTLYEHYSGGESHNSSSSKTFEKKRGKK
# MAP2K5, sequence (Q13163 whole entry): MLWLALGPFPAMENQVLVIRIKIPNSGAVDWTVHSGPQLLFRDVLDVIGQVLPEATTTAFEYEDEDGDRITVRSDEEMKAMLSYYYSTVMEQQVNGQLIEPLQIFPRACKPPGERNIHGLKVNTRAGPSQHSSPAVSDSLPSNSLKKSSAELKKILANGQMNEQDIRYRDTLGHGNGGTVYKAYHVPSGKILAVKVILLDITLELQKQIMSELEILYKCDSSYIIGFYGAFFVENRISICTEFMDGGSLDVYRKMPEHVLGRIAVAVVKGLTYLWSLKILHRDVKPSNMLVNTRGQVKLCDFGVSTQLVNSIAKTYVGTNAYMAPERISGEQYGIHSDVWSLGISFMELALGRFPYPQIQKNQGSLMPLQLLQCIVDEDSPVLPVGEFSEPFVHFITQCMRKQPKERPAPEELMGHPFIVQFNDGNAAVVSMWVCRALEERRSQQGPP
# BTK, sequence (Q06187 whole entry): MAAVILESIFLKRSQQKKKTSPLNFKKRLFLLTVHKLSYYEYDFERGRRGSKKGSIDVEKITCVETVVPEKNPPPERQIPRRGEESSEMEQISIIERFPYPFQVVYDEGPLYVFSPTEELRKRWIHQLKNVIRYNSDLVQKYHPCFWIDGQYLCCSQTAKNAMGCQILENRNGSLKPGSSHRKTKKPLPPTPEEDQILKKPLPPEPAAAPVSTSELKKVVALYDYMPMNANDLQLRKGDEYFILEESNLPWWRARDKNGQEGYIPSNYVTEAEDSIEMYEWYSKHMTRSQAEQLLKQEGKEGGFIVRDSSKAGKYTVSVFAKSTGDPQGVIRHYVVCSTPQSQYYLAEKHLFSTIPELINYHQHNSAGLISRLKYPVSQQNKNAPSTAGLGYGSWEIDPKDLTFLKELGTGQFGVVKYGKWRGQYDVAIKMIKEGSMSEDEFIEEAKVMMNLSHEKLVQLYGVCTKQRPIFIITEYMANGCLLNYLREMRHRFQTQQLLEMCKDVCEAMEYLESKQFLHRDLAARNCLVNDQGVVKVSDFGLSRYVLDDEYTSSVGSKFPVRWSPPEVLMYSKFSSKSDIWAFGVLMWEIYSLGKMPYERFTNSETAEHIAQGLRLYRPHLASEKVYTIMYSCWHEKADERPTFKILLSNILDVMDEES
smiles,measurement,setting,value
"Oc1ccc(C2=Cc3ccc(O)cc3OC2)cc1 [compound 1, idronoxil]",remaining binding at 10 µM,CAMK1G,80%
same,remaining binding at 10 µM,[1],81%
same,remaining binding at 10 µM,BUB1,91%
same,remaining binding at 10 µM,CDC2L2,69%
same,remaining binding at 10 µM,MAP4K5,70%
same,remaining binding at 10 µM,PIM1,34%
same,remaining binding at 10 µM,ACVR1B,87%
same,remaining binding at 10 µM,TTK,83%
same,remaining binding at 10 µM,CLK1,53%
same,remaining binding at 10 µM,BTK,97%
same,remaining binding at 10 µM,LIMK1,89%
same,remaining binding at 10 µM,OXSR1,75%
same,remaining binding at 10 µM,MAK,100%
same,remaining binding at 10 µM,NEK4,98%
same,remaining binding at 10 µM,PIKFYVE,91%
same,remaining binding at 10 µM,CSNK1A1L,96%
same,remaining binding at 10 µM,FRK,78%
same,remaining binding at 10 µM,MAP2K5,62%
same,remaining binding at 10 µM,CHEK2,67%
same,remaining binding at 10 µM,NEK6,100%
